This experiment deals with T1, HIV integrase (Human immunodeficiency virus type 1 group M subtype B, UniProt P12497, F1332H).
T1 construct: HIV integrase full length gene; made in house; host or cells: Escherichia coli BL21(DE3), plasmid pET21a-INH
Briefly: Determination of enzyme (HIV integrase) inhibitory activity. Format: biochemical. As to conditions: recombinant HIV integrase (F185H), strand transfer ELISA, absorbance at 450 nm. In a few lines:
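Full-length integrase with F185H, expressed in E. coli and purified, was reacted for 60 min at 37 °C with compound and biotinylated donor DNA bound to streptavidin plates. Target DNA was added for 10 min, then anti-digoxigenin-peroxidase detection at A450; IC50 from % inhibition versus enzyme-free blank.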
A general note: In an ELISA, binding on a coated surface is turned into a signal by an enzyme label.

The values below come from patent US7211572B2 (Japan Tobacco Inc., priority 2003, dated 2007).

Where a name gives a salt, the structure may show the parent alone.

Broadly, the IC50 is the concentration needed to halve the response being measured.

With `CCC(O)c1cn(Cc2ccc(Cl)c(Cl)c2)c(=O)c2c(O)c(=O)ccn12` (stereo not shown) [Example 430, 2-(3,4-dichlorobenzyl)-9-hydroxy-4-(1-hydroxypropyl)-2H-pyrido[1,2-a]pyrazine-1,8-dione], the IC50 lay within 10 to 100 nM. To `O=c1c(CO)cn2ccn(Cc3cccc(Cl)c3)c(=O)c2c1O` [Example 216, 2-(3-chlorobenzyl)-9-hydroxy-7-hydroxymethyl-2H-pyrido[1,2-a]pyrazine-1,8-dione hydrochloride] belongs 10 to 100 nM. Take `CC1(C)CN(Cc2ccc(Cl)c(Cl)c2)C(=O)c2c(O)c(=O)ccn21` [Example 4, 2-(3,4-dichlorobenzyl)-9-hydroxy-4,4-dimethyl-3,4-dihydro-2H-pyrido[1,2-a]pyrazine-1,8-dione]: the IC50 fell in the range of 10 to 100 nM. To `CC(=O)Nc1cn2ccn(CCCc3c(F)cccc3Cl)c(=O)c2c(O)c1=O` [Example 324, N-{2-[3-(2-chloro-6-fluorophenyl)propyl]-9-hydroxy-1,8-dioxo-1,8-dihydro-2H-pyrido[1,2-a]pyrazin-7-yl]acetamide] belongs 10 to 100 nM; to `CC1(C)CN(Cc2ccc(F)cc2)C(=O)c2c(O)c(=O)c(Br)cn21` [Example 413, 7-bromo-2-(4-fluorobenzyl)-9-hydroxy-4,4-dimethyl-3,4-dihydro-2H-pyrido[1,2-a]pyrazine-1,8-dione hydrochloride], 100 to 1000 nM; to `CCN(C)C(=O)c1cc(=O)c(O)c2n1CCN(Cc1ccc(Cl)c(Cl)c1)C2=O` [Example 63, N-ethyl-N-methyl-2-(3,4-dichlorobenzyl)-9-hydroxy-1,8-dioxo-1,3,4,8-tetrahydro-2H-pyrido[1,2-a]pyrazine-6-carboxamide], under 10 nM.

In the case of `O=C1c2c(O)c(=O)ncn2CCN1Cc1cccc(Cl)c1` [Example 108, 2-(3-chlorobenzyl)-9-hydroxy-3,4-dihydro-2H-pyrazino[1,2-c]pyrimidine-1,8-dione], the IC50 was 10 to 100 nM. Turning to `O=C1c2c(O)c(=O)c(-c3nccs3)cn2CCN1Cc1ccc(F)c(F)c1` [Example 291, 2-(3,4-difluorobenzyl)-9-hydroxy-7-(thiazol-2-yl)-3,4-dihydro-2H-pyrido[1,2-a]pyrazine-1,8-dione], the IC50 is 10 to 100 nM. To `O=C(NCc1ccccn1)c1cn2c(c(O)c1=O)C(=O)N(Cc1ccc(F)cc1)CC2` [Example 410, N-(pyridin-2-ylmethyl)-2-(4-fluorobenzyl)-9-hydroxy-1,8-dioxo-1,3,4,8-tetrahydro-2H-pyrido[1,2-a]pyrazine-7-carboxamide hydrochloride] belongs 10 to 100 nM. In the case of `O=c1c(-c2nccs2)cn2ccn(Cc3ccc(F)cc3)c(=O)c2c1O` [Example 252, 2-(4-fluorobenzyl)-9-hydroxy-7-(thiazol-2-yl)-2H-pyrido[1,2-a]pyrazine-1,8-dione hydrochloride], the concentration for half-maximal inhibition (IC50) was under 10 nM. In the case of `O=C1c2c(O)c(=O)ccn2CCN1Cc1cccc(Cl)c1F` [Example 51, 2-(3-chloro-2-fluorobenzyl)-9-hydroxy-3,4-dihydro-2H-pyrido[1,2-a]pyrazine-1,8-dione], the IC50 lay within 10 to 100 nM. To `CC(C)SCc1cc(=O)c(O)c2n1CCN(Cc1ccc(Cl)c(Cl)c1)C2=O` [Example 36, 2-(3,4-dichlorobenzyl)-9-hydroxy-6-isopropylsulfanylmethyl-3,4-dihydro-2H-pyrido[1,2-a]pyrazine-1,8-dione] belongs 10 to 100 nM; to `O=C1c2c(O)c(=O)c(-c3ccncn3)cn2CCN1Cc1ccc(F)cc1` [Example 392, 2-(4-fluorobenzyl)-9-hydroxy-7-(pyrimidin-4-yl)-3,4-dihydro-2H-pyrido[1,2-a]pyrazine-1,8-dione hydrochloride], 10 to 100 nM; to `CC(C)(C)C(=O)c1cn2ccn(Cc3cccc(F)c3)c(=O)c2c(O)c1=O` [Example 376, 7-(2,2-dimethylpropionyl)-2-(3-fluorobenzyl)-9-hydroxy-2H-pyrido[1,2-a]pyrazine-1,8-dione hydrochloride], 10 to 100 nM. For the compound `O=C1c2c(O)c(=O)cc(CO)n2CCN1Cc1ccc(Cl)c(Cl)c1` [Example 5, 2-(3,4-dichlorobenzyl)-9-hydroxy-6-hydroxymethyl-3,4-dihydro-2H-pyrido[1,2-a]pyrazine-1,8-dione], the half-inhibitory concentration (IC50) is 10 to 100 nM. To `CC(=O)Nc1cn2ccn(Cc3cccc(Cl)c3)c(=O)c2c(O)c1=O` [Example 165, N-[2-(3-chlorobenzyl)-9-hydroxy-1,8-dioxo-1,8-dihydro-2H-pyrido[1,2-a]pyrazin-7-yl]acetamide] belongs 10 to 100 nM; to `O=C(O)C1CN(Cc2ccc(Cl)c(Cl)c2)C(=O)c2c(O)c(=O)ccn21` (stereo not shown) [Example 22, 2-(3,4-dichlorobenzyl)-9-hydroxy-1,8-dioxo-1,3,4,8-tetrahydro-2H-pyrido[1,2-a]pyrazine-4-carboxylic acid], 10 to 100 nM; to `O=C1c2c(O)c(=O)c(-c3ccncn3)cn2CCN1Cc1cccc(Cl)c1` [Example 268, 2-(3-chlorobenzyl)-9-hydroxy-7-(pyrimidin-4-yl)-3,4-dihydro-2H-pyrido[1,2-a]pyrazine-1,8-dione], under 10 nM. On to `COC(=O)CNC(=O)c1cn2ccn(Cc3cccc(Cl)c3)c(=O)c2c(O)c1=O` [Example 174, methyl{[2-(3-chlorobenzyl)-9-hydroxy-1,8-dioxo-1,8-dihydro-2H-pyrido[1,2-a]pyrazine-7-carbonyl]amino}acetate], for which the IC50 fell in the range of 10 to 100 nM. Regarding `O=c1c(-c2cncs2)cn2ccn(Cc3cccc(Cl)c3)c(=O)c2c1O` [Example 218, 2-(3-chlorobenzyl)-9-hydroxy-7-(thiazol-5-yl)-2H-pyrido[1,2-a]pyrazine-1,8-dione hydrochloride], the IC50 was under 10 nM. For the compound `O=C1c2c(O)c(=O)c(-c3nccs3)cn2CCN1Cc1cc2ccccc2o1` [Example 330, 2-(benzofuran-2-ylmethyl)-9-hydroxy-7-(thiazol-2-yl)-3,4-dihydro-2H-pyrido[1,2-a]pyrazine-1,8-dione], the IC50 was under 10 nM. With `CC1Cn2ccc(=O)c(O)c2C(=O)N1Cc1ccc(Cl)c(Cl)c1` (stereo not shown) [Example 3, 2-(3,4-dichlorobenzyl)-9-hydroxy-3-methyl-3,4-dihydro-2H-pyrido[1,2-a]pyrazine-1,8-dione], the IC50 lay within 10 to 100 nM. To `O=C(O)c1cc(=O)c(O)c2n1CCN(Cc1ccc(Cl)c(Cl)c1)C2=O` [Example 6, 2-(3,4-dichlorobenzyl)-9-hydroxy-1,8-dioxo-1,3,4,8-tetrahydro-2H-pyrido[1,2-a]pyrazine-6-carboxylic acid] belongs 10 to 100 nM; to `O=c1c(-c2cccnc2)cn2ccn(Cc3cccc(Cl)c3)c(=O)c2c1O` [Example 115, 2-(3-chlorobenzyl)-9-hydroxy-7-(pyridin-3-yl)-2H-pyrido[1,2-a]pyrazine-1,8-dione hydrochloride], under 10 nM; to `CC(C)c1cn(Cc2cccc(Cl)c2)c(=O)c2c(O)c(=O)c(-c3cccc(Cl)c3)cn12` [Example 139, 2-(3-chlorobenzyl)-7-(3-chlorophenyl)-9-hydroxy-4-isopropyl-2H-pyrido[1,2-a]pyrazine-1,8-dione], 10 to 100 nM.

On to `CN(C)C(=O)c1cn(Cc2cccc(Cl)c2)c(=O)c2c(O)c(=O)ccn12` [Example 97, N,N-dimethyl-2-(3-chlorobenzyl)-9-hydroxy-1,8-dioxo-1,8-dihydro-2H-pyrido[1,2-a]pyrazine-4-carboxamide], for which the IC50 was in the range of 10 to 100 nM. To `O=c1c(-c2ccncn2)cn2ccn(Cc3cccc(Cl)c3F)c(=O)c2c1O` [Example 342, 2-(3-chloro-2-fluorobenzyl)-9-hydroxy-7-(pyrimidin-4-yl)-2H-pyrido[1,2-a]pyrazine-1,8-dione trifluoroacetate] belongs under 10 nM; to `CC(=O)c1cn(Cc2cccc(Cl)c2)c(=O)c2c(O)c(=O)ccn12` [Example 105, 4-acetyl-2-(3-chlorobenzyl)-9-hydroxy-2H-pyrido[1,2-a]pyrazine-1,8-dione], 10 to 100 nM. To `O=C1c2c(O)c(=O)c(-c3nccs3)cn2CCN1Cc1cccc(Cl)c1` [Example 215, 2-(3-chlorobenzyl)-9-hydroxy-7-(thiazol-2-yl)-3,4-dihydro-2H-pyrido[1,2-a]pyrazine-1,8-dione] belongs under 10 nM; to `O=C1c2c(O)c(=O)c(-c3cnccn3)cn2CCN1Cc1cccc(Cl)c1` [Example 416, 2-(3-chlorobenzyl)-9-hydroxy-7-(pyrazin-2-yl)-3,4-dihydro-2H-pyrido[1,2-a]pyrazine-1,8-dione hydrochloride], 10 to 100 nM. For the compound `O=C(NCc1cccnc1)c1cn2c(c(O)c1=O)C(=O)N(Cc1cccc(Cl)c1)CC2` [Example 371, N-(pyridin-3-ylmethyl)-2-(3-chlorobenzyl)-9-hydroxy-1,8-dioxo-1,3,4,8-tetrahydro-2H-pyrido[1,2-a]pyrazine-7-carboxamide hydrochloride], the IC50 was 10 to 100 nM. As for `O=C1c2c(O)c(=O)c(-c3ccccn3)cn2CCN1Cc1cccc(Cl)c1` [Example 282, 2-(3-chlorobenzyl)-9-hydroxy-7-(pyridin-2-yl)-3,4-dihydro-2H-pyrido[1,2-a]pyrazine-1,8-dione hydrochloride], the half-inhibitory concentration (IC50) is under 10 nM. Regarding `O=C(NCCOC(=O)C(F)(F)F)c1cn2ccn(Cc3cccc(Cl)c3)c(=O)c2c(O)c1=O` [Example 177, 2-{[2-(3-chlorobenzyl)-9-hydroxy-1,8-dioxo-1,8-dihydro-2H-pyrido[1,2-a]pyrazine-7-carbonyl]amino}ethyl trifluoroacetate], the IC50 lay within 10 to 100 nM. To `O=C1c2c(O)c(=O)c(-c3nccs3)cn2CCN1Cc1ccc(Cl)cc1O` [Example 350, 2-(4-chloro-2-hydroxybenzyl)-9-hydroxy-7-(thiazol-2-yl)-3,4-dihydro-2H-pyrido[1,2-a]pyrazine-1,8-dione hydrochloride] belongs under 10 nM.
